Data as given in patent publication US8597904B2, “Pharmaceutical compositions for the treatment of conditions responsive to proteasome inhibition” (priority 2007, dated 2013).

Columns and labels:
SKOV3 cells = test: Cytox-Glo cytotoxicity assay; format: cell-based, human; settings: SKOV3, 1.0 μM GlbA or 25 μM SylA, 48 hours
Procedure: Determination of potential cytotoxic effects by GlbA and/or […] was carried out by using the Cytox-Glo cytotoxicity assay, which measures “dead cell proteases” from cells that have lost membrane integrity. Briefly, cells were treated with a single concentration of compound for 48 hours in a final volume of 100 μl, after which 50 μl of AAF-Glo luminogenic peptide substrate (alanyl-alanyl-phenylalanyl-aminoluciferin) was added to each well and incubated for 15 min at room temperature. The luminescence was measured by a Dynex MLX luminometer to give a reading of cells with damaged membranes. Next, 50 μl of digitonin was added to each well and the samples incubated for 15 minutes at room temperature. Luminescence was measured a second time to determine total cell number. Controls included cells with vehicle only, media, and media with compound.
SK-N-SH cells were treated with 0.25 μM GlbA or 25 μM SylA and SKOV3 cells were treated with 1.0 μM GlbA or 25 μM SylA. As illustrated in FIGS. 16A and 16B, control cells (treated with DMSO and H2O representing GlbA and SylA controls, respectively) were viable and no cytotoxicity was detected.

ubiquitinated proteins = test: immunoblot of total ubiquitinated proteins in SK-N-SH cells; format: cell-based, human; settings: for increase of ubiquitinated proteins: 24 hours of treatment
Procedure: As inhibition of the proteasome is expected to result in increased levels of ubiquitinated proteins (Meng, et al. 1999. Proc. Natl. Acad. Sci. U.S.A. 96:10403-10408, which is incorporated herein by reference in its entirety), the effect of syringolin A on total ubiquitinated protein accumulation was analyzed by immunoblot analysis. To do so, SK-N-SH cells were seeded in 6-well cell culture plates at a concentration of 3.8×10^5 cells per ml (1.98 ml per well). After 24 hours, 20 μl of syringolin A (final concentration 25 μM) or cell culture medium (control, C) was added. For time-course experiments, cell treatments were staggered in order to process all samples at the same time after 24 hours. Cell lysates were prepared as previously reported (Wallick, et al. 2005. Oncogene 24:5606-5618, which is incorporated herein by reference in its entirety). Sodium dodecyl sulfate-polyacrylamide gel electrophoresis (SDS-PAGE), electro transfer to PVDF Immobilon-P membranes (Millipore) and antibody incubations were performed according to standard procedures. The primary antibodies used were rabbit whole serum ubiquitin (1:150) (U5379; Sigma), mouse monoclonal tumor suppressor protein p53 (1:250) (se-126; Santa Cruz Biotechnology), and rabbit monoclonal α-tubulin (1:1,500) (11H10; Cell Signaling Technology). Horse radish peroxidase (HRP)-conjugated anti-mouse or anti-rabbit antibodies (1:5,000) were used as secondary antibodies. Membranes were developed using the ECL Plus kit following the manufacturer's protocol (Amersham Biosciences) and exposed to Blue Lite Autorad Film (ISC BioExpress). Membranes were stripped with ECL stripping buffer (62.5 mM Tris-HCL, pH 6.7, 2% SDS, 100 mM β-mercaptoethanol) for 20 min at 55° C. and sequentially re-probed with the next antibody.
To further examine the inhibitory effect, whole cell lysates of GlbA-treated or untreated control cells were analyzed by Western blot and ubiquitinated proteins detected at endogenous levels.

TH-MYCN transgenic mouse = test: tumor reduction in TH-MYCN mouse model of human neuroblastoma; format: in vivo; settings: homozygous mice, i.p. and/or i.v., every 72 hours for 3 to 6 weeks, vs untreated mice
Text: The TH-MYCN transgenic mouse is a well-established neuroblastoma mouse model (Hansfored, et al. 2004. PNAS 101(34):12664-12669; Weiss, et al. 2007. Cancer Res 67(19):9435-9442; Weiss, et al. 2000. Cancer Res 6″2483-2487, each of which is incorporated herein by reference in its entirety). The tumors are caused by targeted expression of MYCN to the neural crest under the control of the rat tyrosine hydroxylase promoter, where the mice develop a tumor phenotype that closely resembles the human disease. The tumors in this strain of mouse generally develop in the abdominal and thoracic areas. TH-MYCN breeder pairs are supplied as hemizygote (129×1/SvJ-Tg(TH-MYCN)41Waw) and a wild type mate (129×1/SvJ).
Test compounds are administered to homozygous mice at a dose that is developed based upon the results of the initial dose and toxicity study (Example 15). Two to four doses per compound are administered by i.p. and/or i.v. methods into homozygous mice when palpable tumors begin to form. Vehicle is delivered […] as a control. Further doses are administered thereafter every 72 hours for 3 to 6 weeks. Between eight to twelve mice are tested in the study for administration of each compound. […] At the conclusion of the study, the mice are sacrificed and tumor size and number of tumors are assessed.

Compound | cytotoxicity (SKOV3 cells) | increase of ubiquitinated proteins (ubiquitinated proteins) | lower concentration of GlbA inducing effects comparable to SylA (ubiquitinated proteins; ubiquitinated proteins) | size and number of tumors (TH-MYCN transgenic mouse) | accumulation of ubiquitinated proteins (ubiquitinated proteins; 25 μM, time-course)
CCCCCCC/C=C/C=C/C(=O)N[C@H](C(=O)N[C@H]1C[C@@H](O)CCNC(=O)/C=C/[C@H](C)NC1=O)[C@@H](C)O [glidobactin A] | relatively low levels of cytotoxicity | 3 fold | 100 fold | effective in reducing both the size and number of tumors | –
CC(C)[C@H](NC(=O)N[C@H](C(=O)N[C@H]1/C=C/CCNC(=O)/C=C/[C@H](C(C)C)NC1=O)C(C)C)C(=O)O [syringolin A] | relatively low levels of cytotoxicity | 3 fold | – | effective in reducing both the size and number of tumors | time-dependent accumulation of ubiquitinated proteins
